Test results from ChEMBL document CHEMBL4725402, “Discovery of thiapyran-pyrimidine derivatives as potential EGFR inhibitors” (Bioorg Med Chem, 2020).
The source made the active and inactive calls. The calls are words filed in the database; no cut-off is given here.

Assays:
Homo sapiens = species on record: Homo sapiens; assay: Inhibition of PI3K (unknown origin) at 1 uM relative to control
[1] = biological target: Vascular endothelial growth factor receptor 2 (Homo sapiens) (UniProt P35968); assay: Inhibition of KDR (unknown origin) at 1 uM relative to control
Sequence of Vascular endothelial growth factor receptor 2 (Homo sapiens) (P35968 whole entry): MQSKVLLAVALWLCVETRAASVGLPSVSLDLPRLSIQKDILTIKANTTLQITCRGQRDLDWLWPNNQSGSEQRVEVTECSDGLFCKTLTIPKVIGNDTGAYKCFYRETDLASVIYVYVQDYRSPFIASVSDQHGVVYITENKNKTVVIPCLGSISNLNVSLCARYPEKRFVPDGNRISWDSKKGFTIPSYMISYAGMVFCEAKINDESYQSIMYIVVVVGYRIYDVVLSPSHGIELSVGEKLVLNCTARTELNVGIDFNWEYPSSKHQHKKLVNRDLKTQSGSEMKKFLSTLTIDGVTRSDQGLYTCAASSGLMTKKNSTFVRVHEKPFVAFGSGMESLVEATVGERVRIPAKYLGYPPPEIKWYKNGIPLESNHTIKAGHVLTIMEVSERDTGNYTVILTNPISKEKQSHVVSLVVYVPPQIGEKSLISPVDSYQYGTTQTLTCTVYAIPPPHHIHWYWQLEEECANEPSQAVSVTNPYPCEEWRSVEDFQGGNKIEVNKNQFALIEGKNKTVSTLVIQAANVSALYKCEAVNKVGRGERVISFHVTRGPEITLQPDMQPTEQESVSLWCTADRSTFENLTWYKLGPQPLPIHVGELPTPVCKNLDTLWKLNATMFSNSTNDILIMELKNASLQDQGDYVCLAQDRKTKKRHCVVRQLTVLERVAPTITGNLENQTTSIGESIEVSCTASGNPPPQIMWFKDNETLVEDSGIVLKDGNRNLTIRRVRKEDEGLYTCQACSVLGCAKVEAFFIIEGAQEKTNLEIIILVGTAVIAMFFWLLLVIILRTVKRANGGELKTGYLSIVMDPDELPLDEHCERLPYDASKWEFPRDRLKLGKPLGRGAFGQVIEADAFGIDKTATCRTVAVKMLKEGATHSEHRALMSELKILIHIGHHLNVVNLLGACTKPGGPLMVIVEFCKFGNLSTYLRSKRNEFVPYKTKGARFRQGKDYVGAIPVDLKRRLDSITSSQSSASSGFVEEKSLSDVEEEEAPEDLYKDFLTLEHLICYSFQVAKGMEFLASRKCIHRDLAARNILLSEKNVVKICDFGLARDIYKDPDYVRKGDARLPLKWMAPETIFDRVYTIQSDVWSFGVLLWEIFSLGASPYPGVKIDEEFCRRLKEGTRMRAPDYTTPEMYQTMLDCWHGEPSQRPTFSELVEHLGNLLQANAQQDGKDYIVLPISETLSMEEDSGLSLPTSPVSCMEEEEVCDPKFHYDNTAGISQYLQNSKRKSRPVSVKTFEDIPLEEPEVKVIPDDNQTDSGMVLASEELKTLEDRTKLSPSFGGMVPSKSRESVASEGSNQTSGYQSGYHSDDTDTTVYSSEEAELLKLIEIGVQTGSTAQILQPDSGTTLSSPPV

L02 = assay: Cytotoxicity against human L02 cells assessed as reduction in cell viability measured after 72 hrs by MTT assay; assay type: cell-based; conditions: L02, 72 h
[2] = Selectivity index, ratio of IC50 for human L02 cells to IC50 for human A549 cells assessed as reduction in cell viability measured after 72 hrs by MTT assay; assay type: toxicity; conditions: L02 cells versus A549 cells, read-out: Ratio IC50
[3] = biological target: Epidermal growth factor receptor (Homo sapiens, UniProt P00533); assay: Inhibition of wild type EGFR (unknown origin) using FAM-labelled peptide as substrate incubated for 10 mins in presence of ATP by Kinase Glo luminescence assay
Sequence of Epidermal growth factor receptor (Homo sapiens, UniProt P00533) (P00533 whole entry): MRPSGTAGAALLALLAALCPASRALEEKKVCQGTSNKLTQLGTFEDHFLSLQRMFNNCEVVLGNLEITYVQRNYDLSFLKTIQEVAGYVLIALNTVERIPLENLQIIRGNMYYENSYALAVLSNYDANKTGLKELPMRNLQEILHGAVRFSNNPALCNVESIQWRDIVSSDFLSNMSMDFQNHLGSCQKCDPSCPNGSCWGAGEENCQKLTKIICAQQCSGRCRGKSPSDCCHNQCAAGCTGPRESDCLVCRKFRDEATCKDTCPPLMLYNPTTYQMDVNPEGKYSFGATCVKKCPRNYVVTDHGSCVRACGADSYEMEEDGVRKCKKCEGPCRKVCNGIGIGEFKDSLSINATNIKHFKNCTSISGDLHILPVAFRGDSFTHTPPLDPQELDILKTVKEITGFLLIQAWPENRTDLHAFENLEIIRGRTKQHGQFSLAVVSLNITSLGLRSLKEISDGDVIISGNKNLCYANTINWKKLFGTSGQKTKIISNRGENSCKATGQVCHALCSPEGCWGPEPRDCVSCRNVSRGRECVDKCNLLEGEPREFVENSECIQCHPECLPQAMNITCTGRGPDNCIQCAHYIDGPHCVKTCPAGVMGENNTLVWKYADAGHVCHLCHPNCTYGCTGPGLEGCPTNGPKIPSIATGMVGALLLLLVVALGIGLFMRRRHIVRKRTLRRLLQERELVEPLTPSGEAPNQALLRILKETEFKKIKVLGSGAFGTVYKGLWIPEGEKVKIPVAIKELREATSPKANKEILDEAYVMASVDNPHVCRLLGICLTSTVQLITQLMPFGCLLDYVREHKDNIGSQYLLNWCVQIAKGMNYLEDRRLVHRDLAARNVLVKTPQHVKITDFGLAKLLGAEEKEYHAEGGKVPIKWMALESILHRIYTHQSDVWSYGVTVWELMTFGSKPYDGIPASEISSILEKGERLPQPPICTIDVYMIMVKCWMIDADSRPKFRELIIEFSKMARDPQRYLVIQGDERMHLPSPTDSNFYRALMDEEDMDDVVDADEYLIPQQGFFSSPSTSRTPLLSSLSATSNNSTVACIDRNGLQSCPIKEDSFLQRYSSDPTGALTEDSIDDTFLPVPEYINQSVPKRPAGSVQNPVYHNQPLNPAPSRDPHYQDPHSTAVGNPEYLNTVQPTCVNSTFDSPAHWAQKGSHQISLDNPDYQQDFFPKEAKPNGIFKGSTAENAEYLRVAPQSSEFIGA

A549 [4] = assay: Antiproliferation activity against human A549 cells assessed as reduction in cell viability measured after 72 hrs by MTT assay; assay type: functional, cell-based; conditions: A549, 72 h
NCI-H1975 [5] = assay: Antiproliferation activity against human NCI-H1975 cells harboring EGFR T790M/L858R mutation assessed as reduction in cell viability measured after 72 hrs by MTT assay; assay type: functional, cell-based; conditions: NCI-H1975, 72 h
[6] = biological target: Epidermal growth factor receptor (Homo sapiens, UniProt P00533, T790M); assay: Inhibition of EGFR T790M mutant (unknown origin) using FAM-labelled peptide as substrate incubated for 10 mins fin presence of ATP by Kinase Glo luminescence assay
Sequence of Epidermal growth factor receptor (Homo sapiens, UniProt P00533, T790M) (P00533 25-1210 T790M limits assumed): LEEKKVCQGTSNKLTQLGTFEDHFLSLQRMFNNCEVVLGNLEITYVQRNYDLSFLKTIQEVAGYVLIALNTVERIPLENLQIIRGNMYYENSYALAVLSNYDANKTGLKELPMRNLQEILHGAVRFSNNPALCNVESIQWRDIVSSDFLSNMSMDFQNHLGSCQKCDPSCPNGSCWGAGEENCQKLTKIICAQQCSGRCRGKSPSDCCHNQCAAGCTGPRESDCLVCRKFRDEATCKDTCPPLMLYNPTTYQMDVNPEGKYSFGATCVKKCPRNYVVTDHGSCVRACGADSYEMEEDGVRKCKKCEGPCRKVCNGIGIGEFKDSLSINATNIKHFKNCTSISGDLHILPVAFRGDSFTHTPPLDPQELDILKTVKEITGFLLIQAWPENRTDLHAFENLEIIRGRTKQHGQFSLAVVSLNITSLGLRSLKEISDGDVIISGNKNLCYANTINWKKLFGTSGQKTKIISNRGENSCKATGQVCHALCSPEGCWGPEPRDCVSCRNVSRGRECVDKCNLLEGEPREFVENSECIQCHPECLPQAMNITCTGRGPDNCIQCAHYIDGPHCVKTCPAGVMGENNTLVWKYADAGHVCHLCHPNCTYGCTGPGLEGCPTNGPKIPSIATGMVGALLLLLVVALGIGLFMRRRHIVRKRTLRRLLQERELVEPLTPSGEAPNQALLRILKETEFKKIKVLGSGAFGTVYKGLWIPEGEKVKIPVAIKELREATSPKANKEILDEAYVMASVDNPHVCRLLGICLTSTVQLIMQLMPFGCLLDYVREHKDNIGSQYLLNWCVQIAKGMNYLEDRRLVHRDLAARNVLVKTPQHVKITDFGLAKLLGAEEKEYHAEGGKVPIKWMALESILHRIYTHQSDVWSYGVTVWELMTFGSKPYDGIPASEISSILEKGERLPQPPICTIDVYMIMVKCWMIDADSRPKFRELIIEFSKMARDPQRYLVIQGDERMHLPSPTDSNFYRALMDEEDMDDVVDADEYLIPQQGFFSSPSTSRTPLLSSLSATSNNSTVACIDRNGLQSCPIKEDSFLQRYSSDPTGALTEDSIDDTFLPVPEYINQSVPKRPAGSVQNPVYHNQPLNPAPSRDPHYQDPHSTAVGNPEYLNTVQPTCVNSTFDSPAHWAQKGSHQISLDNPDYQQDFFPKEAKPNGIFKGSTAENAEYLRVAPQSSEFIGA

HeLa = assay: Antiproliferation activity against human HeLa cells assessed as reduction in cell viability measured after 72 hrs by MTT assay; assay type: functional, cell-based
MCF7 = assay: Antiproliferation activity against human MCF7 cells assessed as reduction in cell viability measured after 72 hrs by MTT assay; assay type: functional, cell-based; conditions: MCF7, 72 h
NCI-H1975 [7] = assay: Induction of apoptosis in human H1975 cells assessed as live cells at 5 uM incubated for 48 hrs Annexin V-FITC staining based flow cytometric analysis (reference value: 96.09 %); assay type: functional
A549 [8] = assay: Cell cycle arrest in human A549 cells assessed as accumulation at G2/M phase at 5 uM incubated for 48 hrs […] staining based flow cytometric analysis (reference value: 2.67 %); assay type: functional
NCI-H1975 [9] = assay: Induction of apoptosis in human H1975 cells assessed as necrotic cells at 5 uM incubated for 48 hrs Annexin V-FITC staining based flow cytometric analysis (reference value: 0.08 %); assay type: functional
A549 [10] = assay: Cell cycle arrest in human A549 cells assessed as accumulation at S phase at 5 uM incubated for 48 hrs […] staining based flow cytometric analysis (reference value: 22.64 %); assay type: functional
[11] = biological target: Serine/threonine-protein kinase mTOR (Homo sapiens) (UniProt P42345); assay: Inhibition of mTOR (unknown origin) at 1 uM relative to control
NCI-H1975 [12] = assay: Induction of apoptosis in human H1975 cells assessed as late apoptotic cells at 5 uM incubated for 48 hrs Annexin V-FITC staining based flow cytometric analysis (reference value: 1.77 %); assay type: functional
NCI-H1975 [13] = assay: Induction of apoptosis in human H1975 cells assessed as early apoptotic cells at 5 uM incubated for 48 hrs Annexin V-FITC staining based flow cytometric analysis (reference value: 2.06 %); assay type: functional
A549 [14] = assay: Cell cycle arrest in human A549 cells assessed as accumulation at G0/G1 phase at 5 uM incubated for 48 hrs […] staining based flow cytometric analysis (reference value: 74.69 %); assay type: functional
[15] = biological target: Hepatocyte growth factor receptor (Homo sapiens) (UniProt P08581); assay: Inhibition of C-MET (unknown origin) at 1 uM relative to control
Sequence of Hepatocyte growth factor receptor (Homo sapiens) (P08581 whole entry): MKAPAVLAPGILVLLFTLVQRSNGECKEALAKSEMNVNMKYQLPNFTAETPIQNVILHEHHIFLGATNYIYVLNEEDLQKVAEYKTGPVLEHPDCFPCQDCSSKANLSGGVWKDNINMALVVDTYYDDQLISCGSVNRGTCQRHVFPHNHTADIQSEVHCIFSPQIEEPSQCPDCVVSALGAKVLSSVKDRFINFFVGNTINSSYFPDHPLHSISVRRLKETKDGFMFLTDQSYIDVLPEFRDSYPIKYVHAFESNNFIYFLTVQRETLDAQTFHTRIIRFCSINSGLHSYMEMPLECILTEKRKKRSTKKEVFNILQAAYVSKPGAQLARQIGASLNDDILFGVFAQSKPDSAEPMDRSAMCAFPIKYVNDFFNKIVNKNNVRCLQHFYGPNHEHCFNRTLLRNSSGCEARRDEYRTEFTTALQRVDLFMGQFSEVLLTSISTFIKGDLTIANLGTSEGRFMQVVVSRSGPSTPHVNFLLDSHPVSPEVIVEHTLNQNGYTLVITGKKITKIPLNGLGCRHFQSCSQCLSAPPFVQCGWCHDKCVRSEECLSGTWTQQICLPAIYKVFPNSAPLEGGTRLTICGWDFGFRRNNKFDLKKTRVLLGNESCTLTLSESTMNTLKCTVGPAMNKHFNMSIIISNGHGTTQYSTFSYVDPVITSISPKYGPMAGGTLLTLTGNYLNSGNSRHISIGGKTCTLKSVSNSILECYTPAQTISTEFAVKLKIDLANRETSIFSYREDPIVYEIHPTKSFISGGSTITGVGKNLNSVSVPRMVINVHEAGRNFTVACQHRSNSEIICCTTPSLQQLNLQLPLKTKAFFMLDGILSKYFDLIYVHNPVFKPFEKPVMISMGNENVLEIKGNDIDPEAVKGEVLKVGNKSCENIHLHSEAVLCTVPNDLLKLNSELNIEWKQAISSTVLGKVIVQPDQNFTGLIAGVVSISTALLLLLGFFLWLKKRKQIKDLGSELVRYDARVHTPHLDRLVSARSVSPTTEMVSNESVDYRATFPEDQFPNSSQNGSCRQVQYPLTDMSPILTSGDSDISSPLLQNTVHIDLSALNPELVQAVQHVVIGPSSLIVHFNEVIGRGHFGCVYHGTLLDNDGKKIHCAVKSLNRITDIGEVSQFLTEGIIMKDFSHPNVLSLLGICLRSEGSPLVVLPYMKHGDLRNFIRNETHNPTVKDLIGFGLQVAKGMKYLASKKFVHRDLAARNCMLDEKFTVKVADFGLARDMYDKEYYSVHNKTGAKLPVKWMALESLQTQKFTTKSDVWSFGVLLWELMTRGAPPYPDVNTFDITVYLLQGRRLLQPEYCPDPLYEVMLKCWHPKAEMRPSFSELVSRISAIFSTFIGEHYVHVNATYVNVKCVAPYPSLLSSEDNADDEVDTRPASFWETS

| Structure (SMILES) | inhibition (Homo sapiens) | inhibition [1] | IC50 (L02) | selectivity ratio at 72 h [2] | IC50 [3] | IC50 (A549 [4]) | IC50 (NCI-H1975 [5]) | IC50 [6] | IC50 (HeLa) | IC50 (MCF7) | Activity (NCI-H1975 [7]) | Activity (A549 [8]) | Activity (NCI-H1975 [9]) | Activity (A549 [10]) | inhibition [11] | Activity (NCI-H1975 [12]) | Activity (NCI-H1975 [13]) | Activity (A549 [14]) | inhibition [15] |
| --- | --- | --- | --- | --- | --- | --- | --- | --- | --- | --- | --- | --- | --- | --- | --- | --- | --- | --- | --- |
| Oc1cccc(-c2nc(N3CCOCC3)c3oc4ncccc4c3n2)c1 | 99.8% | 2.4% |  |  |  |  |  |  |  |  |  |  |  |  |  |  |  |  |  |
| CCC/C=C/C(=O)Nc1cccc(Oc2nc(Nc3ccn(C)n3)nc3c2CSCC3)c1 |  |  | > 50 µM | > 6.1 | > 1 µM | 8.19 µM | 13.6 µM | > 1 µM | 17 µM | 22.6 µM |  |  |  |  |  |  |  |  |  |
| C=CC(=O)Nc1cccc(Oc2nc(Nc3ccc(N4CCN(C)CC4)cc3)nc3ccsc23)c1 [OLMUTINIB] | inactive | inactive |  |  |  |  |  |  |  |  | 84.27% | 8.72% | 0.34% | 14.65% | inactive | 10.76% | 4.63% | 76.63% | 7.1% |
| CC/C=C/C(=O)Nc1cccc(Oc2nc(Nc3ccc(OC)cc3)nc3c2CSCC3)c1 |  |  | > 50 µM | > 2.49 |  | 20.1 µM | 17.2 µM |  | 27.2 µM | 31.4 µM |  |  |  |  |  |  |  |  |  |
